{"source": "ChEMBL document CHEMBL1136131", "about": "“Synthesis of poly(ethylene glycol) with sulfadiazine and chlorambucil end groups and investigation of its antitumor activity” (Bioorg Med Chem Lett, 2003)", "test": "Acute toxicity in mice", "details": "mouse, in vivo"}
{"smiles": "O=C(O)CCCc1ccc(N(CCCl)CCCl)cc1", "note": "[CHLORAMBUCIL]", "values": [{"measurement": "LD50", "result": 49.54, "unit": "mg⁻¹ kg⁻¹"}]}
